PubChem BioAssay (NCI)
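All cell lines were grown in 96-well plates and treated with compound for 48 hours. GI50 = concentration required for 50% inhibition of growth. TGI is the concentration that stops growth completely.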

How the values were obtained:
Test in all cases: growth of human tumour cells (NCI), 48 h
[1] = tested on: PC-3 prostate
[2] = tested on: T-47D breast
[3] = tested on: UACC-257 melanoma
[4] = tested on: KM12 colon
[5] = tested on: UO-31 renal
[6] = tested on: RPMI-8226 leukemia
[7] = tested on: LOX IMVI melanoma
[8] = tested on: SF-268 CNS
[9] = tested on: NCI-H226 lung
[10] = tested on: NCI-H522 lung
[11] = tested on: MALME-3M melanoma
[12] = tested on: NCI-H460 lung
[13] = tested on: SW-620 colon
[14] = tested on: DU-145 prostate
[15] = tested on: SK-MEL-28 melanoma
[16] = tested on: OVCAR-3 ovarian
[17] = tested on: A549 NSCLC
[18] = tested on: IGROV1 ovarian
[19] = tested on: NCI-H23 lung
[20] = tested on: HT29 colon
[21] = tested on: SNB-75 CNS
[22] = tested on: MOLT-4 leukemia
[23] = tested on: MDA-MB-231 breast
[24] = tested on: EKVX NSCLC
[25] = tested on: BT-549 breast
[26] = tested on: HL-60(TB) leukemia
[27] = tested on: SK-MEL-2 melanoma
[28] = tested on: CCRF-CEM leukemia
[29] = tested on: HS 578T breast
[30] = tested on: M14 melanoma
[31] = tested on: TK-10 renal
[32] = tested on: SR leukemia
[33] = tested on: CAKI-1 renal
[34] = tested on: OVCAR-5 ovarian
[35] = tested on: U251 CNS
[36] = tested on: A498 renal
[37] = tested on: HOP-62 NSCLC
[38] = tested on: ACHN renal
[39] = tested on: HOP-92 NSCLC
[40] = tested on: 786-0 renal
[41] = tested on: SF-539 CNS
[42] = tested on: HCT-116 colon
[43] = tested on: SK-OV-3 ovarian
[44] = tested on: UACC-62 melanoma
[45] = tested on: SN12C renal
[46] = tested on: HCC-2998 colon
[47] = tested on: SK-MEL-5 melanoma
[48] = tested on: NCI/ADR-RES ovarian
[49] = tested on: HCT-15 colon
[50] = tested on: OVCAR-8 ovarian
[51] = tested on: SNB-19 CNS
[52] = tested on: OVCAR-4 ovarian
[53] = tested on: K-562 leukemia

CC(C)OC(=O)Nc1ccc(-c2nc(-c3cccc(OCCN4CCOCC4)c3)c(-c3ccnc(Br)c3)[nH]2)cc1
GI50 [1]: 2.96 µM
TGI [1]: > 100 µM
GI50 [2]: 2.61 µM
TGI [2]: > 100 µM
GI50 [3]: 2.72 µM
TGI [3]: 8.82 µM
GI50 [4]: 3.12 µM
TGI [4]: > 100 µM
GI50 [5]: 2.84 µM
TGI [5]: > 100 µM
GI50 [6]: 0.549 µM
TGI [6]: 2.91 µM
GI50 [7]: 1.56 µM
TGI [7]: 3.39 µM
GI50 [8]: 4.05 µM
TGI [8]: > 100 µM
GI50 [9]: 3.75 µM
TGI [9]: > 100 µM
GI50 [10]: 3.86 µM
TGI [10]: > 100 µM
GI50 [11]: 1.56 µM
TGI [11]: 3.39 µM
GI50 [12]: 3.63 µM
TGI [12]: > 100 µM
GI50 [13]: 3.12 µM
TGI [13]: > 100 µM
GI50 [14]: 4.8 µM
TGI [14]: > 100 µM
GI50 [15]: 1.67 µM
TGI [15]: 4.16 µM
GI50 [16]: 4.91 µM
TGI [16]: > 100 µM
GI50 [17]: 3.49 µM
TGI [17]: > 100 µM
GI50 [18]: 4.39 µM
TGI [18]: > 100 µM
GI50 [19]: 1.99 µM
TGI [19]: 4.72 µM
GI50 [20]: 2.69 µM
TGI [20]: > 100 µM
GI50 [21]: 0.611 µM
TGI [21]: 5.17 µM
GI50 [22]: 2.2 µM
TGI [22]: > 100 µM
GI50 [23]: 3.54 µM
TGI [23]: 56.7 µM
GI50 [24]: 2.39 µM
TGI [24]: 7.55 µM
GI50 [25]: 2.86 µM
TGI [25]: > 100 µM
GI50 [26]: 1.87 µM
TGI [26]: 4.59 µM
GI50 [27]: 2.87 µM
TGI [27]: 9.13 µM
GI50 [28]: 2.46 µM
TGI [28]: > 100 µM
GI50 [29]: 0.461 µM
TGI [29]: 2.76 µM
GI50 [30]: 2.78 µM
TGI [30]: 11.7 µM
GI50 [31]: 6.15 µM
TGI [31]: > 100 µM
GI50 [32]: 2.4 µM
TGI [32]: > 100 µM
GI50 [33]: 2.85 µM
TGI [33]: > 100 µM
GI50 [34]: 4.97 µM
TGI [34]: > 100 µM
GI50 [35]: 2.01 µM
TGI [35]: > 100 µM
GI50 [36]: 1.23 µM
TGI [36]: 4.12 µM
GI50 [37]: 3.04 µM
TGI [37]: > 100 µM
GI50 [38]: 3.22 µM
TGI [38]: > 100 µM
GI50 [39]: 2.45 µM
TGI [39]: 7.99 µM
GI50 [40]: 1.24 µM
TGI [40]: 3.54 µM
GI50 [41]: 1.52 µM
TGI [41]: 5.46 µM
GI50 [42]: 2.96 µM
TGI [42]: > 100 µM
GI50 [43]: 2.49 µM
TGI [43]: 5.8 µM
GI50 [44]: 2.31 µM
TGI [44]: 6.28 µM
GI50 [45]: 4.29 µM
TGI [45]: > 100 µM
GI50 [46]: 3.1 µM
TGI [46]: > 100 µM
GI50 [47]: 1.79 µM
TGI [47]: 3.27 µM
GI50 [48]: 4.3 µM
TGI [48]: > 100 µM
GI50 [49]: 1.3 µM
TGI [49]: 4.26 µM
GI50 [50]: 4.32 µM
TGI [50]: > 100 µM
GI50 [51]: 3.22 µM
TGI [51]: > 100 µM
GI50 [52]: 4.79 µM
TGI [52]: > 100 µM
GI50 [53]: 1.58 µM
TGI [53]: > 100 µM
